The record followed here is patent EP4796538A1, “NOVEL QUINOXALINE COMPOUNDS, MANUFACTURING METHOD THEREOF, AND USES THEREOF” (Gachon University of Industry-Academic Cooperation …, priority 2023, dated 2025).

Like-named read-outs stand apart in the source and are kept apart here.

One assay concerns the target T1, RET(G810R) (Homo sapiens, UniProt P07949, G810R).
T1 construct: purchased Reaction Biology Corp
Kind of assay: Kinase panel inhibition, radiolabeled [γ-33P] ATP (Reaction Biology Corp). The format is biochemical. The note with it: for remaining activity at 0.1 µM: compound at 0.1 uM; for remaining activity at 0.1 µM / remaining activity at 1 µM: ATP 10 µM, read-out: % Enzyme Activity (relative to DMSO controls) G810R; for remaining activity at 1 µM: compound at 1 uM.

In the next assay the target is T2, RET(V804M) (Homo sapiens, UniProt P07949, V804M).
T2 construct: purchased Reaction Biology Corp
The description is as above. Format: biochemical. Particulars: for remaining activity at 0.1 µM: compound at 0.1 uM; for remaining activity at 0.1 µM / remaining activity at 1 µM: ATP 10 µM, read-out: % Enzyme Activity (relative to DMSO controls) V804M; for remaining activity at 1 µM: compound at 1 uM.

For another assay, the target named is T3, RET(V804M)-KIF5B (Homo sapiens, UniProt P07949, V804M).
T3 sequence (P07949 713-1114 V804M): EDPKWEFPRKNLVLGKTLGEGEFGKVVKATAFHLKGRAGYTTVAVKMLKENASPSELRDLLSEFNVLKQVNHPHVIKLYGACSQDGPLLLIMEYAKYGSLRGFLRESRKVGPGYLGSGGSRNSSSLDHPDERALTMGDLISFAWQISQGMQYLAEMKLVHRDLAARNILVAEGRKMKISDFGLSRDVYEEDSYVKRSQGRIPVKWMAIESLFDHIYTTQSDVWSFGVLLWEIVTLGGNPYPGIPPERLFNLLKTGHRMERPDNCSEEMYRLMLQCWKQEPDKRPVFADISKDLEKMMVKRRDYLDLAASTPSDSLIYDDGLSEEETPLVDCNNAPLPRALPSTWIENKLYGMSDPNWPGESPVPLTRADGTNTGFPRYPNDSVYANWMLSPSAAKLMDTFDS
T3 sequence (P33176 2-575 partner): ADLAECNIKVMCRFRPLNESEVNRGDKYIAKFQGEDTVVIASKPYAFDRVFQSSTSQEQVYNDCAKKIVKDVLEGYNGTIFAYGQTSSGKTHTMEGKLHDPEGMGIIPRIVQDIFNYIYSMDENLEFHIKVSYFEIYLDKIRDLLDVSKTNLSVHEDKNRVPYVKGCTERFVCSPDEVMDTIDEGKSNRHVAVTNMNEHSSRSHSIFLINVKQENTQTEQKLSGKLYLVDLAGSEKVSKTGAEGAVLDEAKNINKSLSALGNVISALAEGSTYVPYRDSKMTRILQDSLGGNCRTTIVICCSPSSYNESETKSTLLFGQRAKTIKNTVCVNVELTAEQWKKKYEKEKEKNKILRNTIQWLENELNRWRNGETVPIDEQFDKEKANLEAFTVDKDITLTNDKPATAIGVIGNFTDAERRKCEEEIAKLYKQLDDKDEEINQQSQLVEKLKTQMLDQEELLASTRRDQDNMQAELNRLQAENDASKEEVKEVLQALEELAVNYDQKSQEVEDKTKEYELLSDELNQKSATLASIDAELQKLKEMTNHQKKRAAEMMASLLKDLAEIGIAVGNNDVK
The assay is described as above. Format: biochemical. The note with it: for remaining activity at 0.1 µM: compound at 0.1 uM, ATP 10 µM, read-out: % Enzyme Activity (relative to DMSO controls) RET (V804M )-KIF5B.

A further assay concerns the target T4, RET-CCDC6 (PTC1) (Homo sapiens, UniProt P07949).
T4 construct: purchased Reaction Biology Corp
The assay is described as above. Format: biochemical. Particulars: compound at 10 uM, ATP 1 µM.

A further assay has as its target T5, RET (G810S/M918T) (Homo sapiens, UniProt P07949, G810S/M918T).
T5 construct: purchased Reaction Biology Corp
The description is as above. The format is biochemical. Particulars: ATP 1 µM; for remaining activity at 10 µM: compound at 10 uM; for remaining activity at 30 µM: compound at 30uM.

Another assay relates to A-549. Kind of assay: Cell proliferation inhibition, Cell Counting Kit-8, non-small cell lung cancer cell line. Format: cell-based. The note with it: A-549 cell line; 72 hours incubation; test concentration not given. A general note: Tetrazolium dyes change colour on reduction, which living cells bring about.
Another assay addresses T6, RET (Homo sapiens, UniProt P07949).
T6 construct: purchased Reaction Biology Corp
The assay can be described thus: Kinase panel inhibition, radiolabeled [γ-33P] ATP (Reaction Biology Corp). Format: biochemical. Particulars: compound at 1 uM; ATP 10 µM; read-out: % Enzyme Activity (relative to DMSO controls) RET.

A further assay deals with BaF3 KIF5B-RET (G810R). The assay can be described thus: Cell proliferation inhibition, Cell Counting Kit-8, Ba/F3 cell line. The format is cell-based, rodent. The note with it: Mus musculus, 72 hours incubation, read-out: Cell Viability of BaF3 Cell lines (IC50 in uM) KIF5B-RET (G810R).
Setting [1] is: Data 1, read-out: % Enzyme Activity (relative to DMSO controls) RET-CCDC6 (PTC1) Data 1.
Where [2] appears, read: Data 2, read-out: % Enzyme Activity (relative to DMSO controls) RET-CCDC6 (PTC1) Data 2.
Setting [3] is: Data 1, read-out: % Enzyme Activity (relative to DMSO controls) RET (G810S/M918T) Data 1.
The mark [4] stands for this setting: Data 2, read-out: % Enzyme Activity (relative to DMSO controls) RET (G810S/M918T) Data 2.

T6 sequence (P07949 29-1114): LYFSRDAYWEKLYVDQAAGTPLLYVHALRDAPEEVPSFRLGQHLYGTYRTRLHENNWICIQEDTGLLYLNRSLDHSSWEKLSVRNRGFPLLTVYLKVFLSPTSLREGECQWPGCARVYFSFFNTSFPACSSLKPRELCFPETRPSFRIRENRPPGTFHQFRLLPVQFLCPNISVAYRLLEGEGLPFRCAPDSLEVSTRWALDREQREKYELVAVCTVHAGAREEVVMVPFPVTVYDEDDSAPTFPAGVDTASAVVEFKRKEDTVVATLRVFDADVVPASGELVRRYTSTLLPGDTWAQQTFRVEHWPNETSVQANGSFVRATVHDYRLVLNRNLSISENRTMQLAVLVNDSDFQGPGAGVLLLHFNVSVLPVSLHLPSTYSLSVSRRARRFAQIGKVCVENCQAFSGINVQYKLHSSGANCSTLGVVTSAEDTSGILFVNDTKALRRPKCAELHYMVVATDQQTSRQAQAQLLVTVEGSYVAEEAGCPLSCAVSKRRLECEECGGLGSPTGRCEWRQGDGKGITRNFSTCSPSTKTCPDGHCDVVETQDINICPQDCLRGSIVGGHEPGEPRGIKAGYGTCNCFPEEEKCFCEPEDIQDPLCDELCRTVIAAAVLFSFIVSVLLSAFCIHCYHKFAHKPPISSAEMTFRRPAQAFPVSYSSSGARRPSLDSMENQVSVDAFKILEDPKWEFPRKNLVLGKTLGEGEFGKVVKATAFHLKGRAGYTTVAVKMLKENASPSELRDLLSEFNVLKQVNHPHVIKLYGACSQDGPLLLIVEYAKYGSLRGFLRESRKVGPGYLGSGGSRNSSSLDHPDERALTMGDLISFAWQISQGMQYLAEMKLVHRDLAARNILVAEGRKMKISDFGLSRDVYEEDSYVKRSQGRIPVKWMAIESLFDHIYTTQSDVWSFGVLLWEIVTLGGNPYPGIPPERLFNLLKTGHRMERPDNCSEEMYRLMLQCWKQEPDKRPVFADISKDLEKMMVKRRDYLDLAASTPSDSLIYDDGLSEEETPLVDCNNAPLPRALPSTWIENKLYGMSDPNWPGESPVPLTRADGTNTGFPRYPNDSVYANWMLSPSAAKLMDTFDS
T2 sequence (P07949 29-1114 V804M): as the sequence (P07949 29-1114) above, with V776M counted along it
T5 sequence (P07949 29-1114 G810S/M918T): as the sequence (P07949 29-1114) above, with G782S, M890T counted along it
T4 sequence (P07949 whole entry, looked up): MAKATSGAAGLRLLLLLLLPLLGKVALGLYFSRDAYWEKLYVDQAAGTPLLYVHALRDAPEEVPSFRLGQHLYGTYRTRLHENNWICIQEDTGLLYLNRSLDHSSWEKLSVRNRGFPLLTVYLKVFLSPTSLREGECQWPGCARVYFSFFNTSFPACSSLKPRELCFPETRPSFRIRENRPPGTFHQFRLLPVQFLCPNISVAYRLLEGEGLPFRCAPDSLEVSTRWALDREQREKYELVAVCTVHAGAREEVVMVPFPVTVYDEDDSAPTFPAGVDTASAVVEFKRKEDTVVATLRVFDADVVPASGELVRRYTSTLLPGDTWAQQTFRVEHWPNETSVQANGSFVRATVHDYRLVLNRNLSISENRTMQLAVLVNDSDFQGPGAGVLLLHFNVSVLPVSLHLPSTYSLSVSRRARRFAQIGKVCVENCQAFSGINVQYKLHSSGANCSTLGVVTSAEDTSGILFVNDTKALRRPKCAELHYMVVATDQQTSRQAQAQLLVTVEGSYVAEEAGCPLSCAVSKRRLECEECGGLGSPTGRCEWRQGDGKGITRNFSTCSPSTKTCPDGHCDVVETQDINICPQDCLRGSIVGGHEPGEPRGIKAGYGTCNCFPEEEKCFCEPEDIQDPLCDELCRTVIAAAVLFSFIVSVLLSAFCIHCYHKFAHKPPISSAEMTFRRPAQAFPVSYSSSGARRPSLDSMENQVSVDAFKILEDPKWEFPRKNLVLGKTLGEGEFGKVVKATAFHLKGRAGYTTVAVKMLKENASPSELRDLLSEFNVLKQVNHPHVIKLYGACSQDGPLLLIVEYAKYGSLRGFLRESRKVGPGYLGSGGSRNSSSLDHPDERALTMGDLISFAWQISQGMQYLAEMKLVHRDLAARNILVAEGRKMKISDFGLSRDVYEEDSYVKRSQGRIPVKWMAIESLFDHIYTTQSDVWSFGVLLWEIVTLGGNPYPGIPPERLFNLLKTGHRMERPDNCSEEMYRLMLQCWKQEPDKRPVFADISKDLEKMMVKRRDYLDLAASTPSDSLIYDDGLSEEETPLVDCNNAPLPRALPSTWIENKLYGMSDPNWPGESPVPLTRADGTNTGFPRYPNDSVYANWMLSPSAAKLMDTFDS
T1 sequence (P07949 29-1114 G810R): as the sequence (P07949 29-1114) above, with G782R counted along it

On to `O=C(Nc1cc(-c2ccc(N3CC(Oc4cccc(F)c4)C3)nc2)c2nccnc2c1)c1ccco1` [Example 8, N-(8-(6-(3-(3-fluorophenoxy)azetidin-1-yl)pyridin-3-yl)quinoxalin-6-yl)furan-2-carboxamide], for which the values for the remaining activity at 0.1 µM on RET(G810R), at RET(V804M) and on RET(V804M)-KIF5B were 96.7%, 46% and 65.1%, respectively. Further, the remaining activity at 10 µM was 2.53% at RET-CCDC6 (PTC1) (setting [1]), 1.8% on RET-CCDC6 (PTC1) (setting [2]), 13.6% on RET (G810S/M918T) (setting [3]) and 12.9% on RET (G810S/M918T) (setting [4]). Moreover, in the assay with A-549, the “Cell Proliferation (% of control)” value is 78.35%.
The IC50 is the midpoint of a concentration-inhibition curve. Take `Nc1cc(-c2ccc(N3CC[C@H](NC(=O)c4ccccc4F)C3)nc2)c2nccnc2c1` [Example 10, (S)-N-(1-(5-(7-aminoquinoxalin-5-yl)pyridin-2-yl)pyrrolidin-3-yl)-2-fluorobenzamide]: the remaining activity at 0.1 µM on RET(G810R) turned out to be 59.9%; on RET(V804M) it was 2.27%; on RET(V804M)-KIF5B, 5.5%. The IC50 at RET(G810R) (read-out: Enzymatic inhibitory activity (IC50) nM G810R) worked out at 44.7 nM; on RET(V804M) (read-out: Enzymatic inhibitory activity (IC50) nM V804M), 0.5 nM; at RET(V804M)-KIF5B it was 0.00226 µM. Moreover, the remaining activity at 10 µM at RET-CCDC6 (PTC1) (setting [1]) is 1.55%; on RET-CCDC6 (PTC1) (setting [2]) it was 0.99%; at RET (G810S/M918T) (setting [3]), -0.09%; at RET (G810S/M918T) (setting [4]) it was -0.6%. In the assay on A-549, the “Cell Proliferation (% of control)” value was found to be 32.59%.
For the compound `O=[N+]([O-])c1cc(-c2ccc(N3CC(Oc4cccc(F)c4)C3)nc2)c2nccnc2c1` [Example 27, 5-(6-(3-(3-fluorophenoxy)azetidin-1-yl)pyridin-3-yl)-7-nitroquinoxaline], the remaining activity at 1 µM at RET came out at 67.2%; at RET(G810R) it was 101%; on RET(V804M), 62.8%. The remaining activity at 30 µM at RET (G810S/M918T) (setting [3]) came out at 59.9%; on RET (G810S/M918T) (setting [4]), 58.1%. Also, in the assay with BaF3 KIF5B-RET (G810R), the IC50 was greater than 10 µM. Also, the “Cell Proliferation (% of control)” value in the assay on A-549 is 94.57%.
On to `CCN(CC)c1cc(-c2ccc(N3CC(Oc4cccc(F)c4)C3)nc2)c2nccnc2c1` [Example 28, N,N-diethyl-8-(6-(3-(3-fluorophenoxy)azetidin-1-yl)pyridin-3-yl)quinoxalin-6-amine], for which the remaining activity at 1 µM was determined as 28.3% at RET, 105% on RET(G810R) and 16.5% at RET(V804M). The remaining activity at 30 µM on RET (G810S/M918T) (setting [3]) was 4.19%; on RET (G810S/M918T) (setting [4]), 4.35%. In the assay with BaF3 KIF5B-RET (G810R), the IC50 was greater than 10 µM. Moreover, the “Cell Proliferation (% of control)” value with A-549 is given as 94.81%.
As to `CCNc1cc(C#CCN2CCOCC2)c2nccnc2c1` [Example 31, N-ethyl-8-(3-morpholinoprop-1-yn-1-yl)quinoxalin-6-amine], the remaining activity at 0.1 µM on RET(G810R) was 98.5%; at RET(V804M), 105%; on RET(V804M)-KIF5B it was 109%. Also, the remaining activity at 10 µM at RET-CCDC6 (PTC1) (setting [1]) is 14.8%; at RET-CCDC6 (PTC1) (setting [2]) it was 15.4%; on RET (G810S/M918T) (setting [3]), 61.7%; at RET (G810S/M918T) (setting [4]), 61.2%. Also, the “Cell Proliferation (% of control)” value in the assay with A-549 stood at 51.88%.
As to `CCNc1cc(Nc2cc(C)[nH]n2)c2nccnc2c1` [Example 32, N7-ethyl-N5-(5-methyl-1H-pyrazol-3-yl)quinoxaline-5,7-diamine], the remaining activity at 0.1 µM on RET(G810R) was 96.6%; at RET(V804M), 88.7%; at RET(V804M)-KIF5B, 85.9%. Besides, the remaining activity at 10 µM on RET-CCDC6 (PTC1) (setting [1]) is 5.39%; at RET-CCDC6 (PTC1) (setting [2]), 4.58%; at RET (G810S/M918T) (setting [3]) it was 41.9%; at RET (G810S/M918T) (setting [4]), 40.6%. Moreover, the “Cell Proliferation (% of control)” value in the assay on A-549 is 92.91%.
As for `CCNc1cc(-c2ccc(F)nc2)c2nccnc2c1` [Intermediate Compound 6, N-ethyl-8-(6-fluoropyridin-3-yl)quinoxalin-6-amine], the results for the remaining activity at 1 µM at RET, on RET(G810R) and on RET(V804M) were 57%, 97.9% and 59.3%, respectively. In addition, the remaining activity at 30 µM amounted to 18.2% on RET (G810S/M918T) (setting [3]) and 17.2% on RET (G810S/M918T) (setting [4]). In the assay with BaF3 KIF5B-RET (G810R), the IC50 amounted to 4.44 µM.
For `O=C(Nc1cc(Br)c2nccnc2c1)c1ccco1` [Intermediate Compound 11, N-(8-bromoquinoxalin-6-yl)furan-2-carboxamide], the remaining activity at 1 µM on RET is 93.7%; at RET(G810R), 97.6%; at RET(V804M), 87.1%. In addition, the remaining activity at 30 µM at RET (G810S/M918T) (setting [3]) is 74.7%; on RET (G810S/M918T) (setting [4]) it was 73%. In the assay with BaF3 KIF5B-RET (G810R), the IC50 was greater than 10 µM.
Regarding `O=C(Nc1cc(-c2ccc(F)nc2)c2nccnc2c1)c1ccco1` [Intermediate Compound 13, N-(8-(6-fluoropyridin-3-yl)quinoxalin-6-yl)furan-2-carboxamide], the remaining activity at 1 µM was determined as 95.7% at RET, 102% at RET(G810R) and 104% on RET(V804M). The remaining activity at 30 µM on RET (G810S/M918T) (setting [3]) is 92.6%; at RET (G810S/M918T) (setting [4]), 89.7%. Besides, the IC50 with BaF3 KIF5B-RET (G810R) was greater than 10 µM.
As to `O=[N+]([O-])c1cc(-c2ccc(F)nc2)c2nccnc2c1` [Intermediate Compound 15, 5-(6-fluoropyridin-3-yl)-7-nitroquinoxaline], the remaining activity at 1 µM on RET was determined as 93.5%; on RET(G810R) it was 99.5%; on RET(V804M) it was 94.9%. The remaining activity at 30 µM at RET (G810S/M918T) (setting [3]) amounted to 97.4%; at RET (G810S/M918T) (setting [4]), 99.4%.
Regarding `CCNc1cc(Br)c2nccnc2c1` [Intermediate Compound 18, 8-Bromo-N-ethylquinoxalin-6-amine], the remaining activity at 1 µM at RET was 71.1%; at RET(G810R), 104%; at RET(V804M) it was 68.3%. Besides, the remaining activity at 30 µM came out at 10.3% at RET (G810S/M918T) (setting [3]) and 9.57% on RET (G810S/M918T) (setting [4]). For the same compound, the IC50 in the assay with BaF3 KIF5B-RET (G810R) stood at 0.73 µM.
On to `COc1ccc(CN2C3CC2CN(c2ccc(-c4cc(OCC(C)(C)O)cn5ncc(C#N)c45)cn2)C3)cn1` [Selpercatinib, selpercatinib, reference compound], for which the IC50 in the assay with BaF3 KIF5B-RET (G810R) is 1.41 µM.
